Values after ≈ are worked out from the molar mass of the structure shown. Where two headings read alike, the source gives them in different places. Marks after values point to notes of the source that are not given here.
Experiments:
[1] = system: M. tuberculosis H37Rv_LuxABCDE; assay: microbe, parasite or virus in culture; type: cell-based, Mycobacterium tuberculosis; details: Mycobacterium tuberculosis, day 7, SD from three independent experiments, read-out: MBC (±SD) via CFU
[2] = system: M. tuberculosis H37Rv_LuxABCDE; assay: luminescence-based MIC assay (LMICA); details: 90% reduction of luminescence, 7 days, 7H12 medium; SD from three independent experiments
[3] = system: J774-internalized M. tuberculosis (H37Rv); assay: intracellular activity by luminescence (EC90); type: cell-based, Mycobacterium tuberculosis; details: for EC90: RLU; for onset of growth inhibition of internalized M. tuberculosis: early = EC90 obtainable by day 3, late = EC90 obtainable by day 5 or later
[4] = system: macrophage-internalized M. tuberculosis; details: EC90, high-content imaging on day 5; read-out: Literature reported EC90; cited from earlier work
[5] = system: M. tuberculosis H37Rv_LuxABCDE; assay: MIC used to set PAE concentrations (Table 4); type: cell-based; details: Mycobacterium tuberculosis
Text: TABLE 4 Comparison of post antibiotic effect values (h) obtained via CFU and RLU measurement for two established TB drugs (rifampin and isoniazid) and two emerging TB lead candidates (ecumicin and rufomycin)^a | column: MIC (μM)

[6] = system: M. tuberculosis H37Rv_LuxABCDE; assay: luminescence-based MBC assay (LMBCA) / time-kill; type: cell-based, Mycobacterium tuberculosis; details: for MBC: Mycobacterium tuberculosis, 99% reduction in RLU vs T0; for change of MBC values over time: over 21 days, luminescence time-kill; for time and/or concentration dependence of bactericidal activity: time-kill curves up to day 21
[7] = system: M. tuberculosis H37Rv_LuxABCDE; assay: postantibiotic effect by luminescence (RLU); type: cell-based, Mycobacterium tuberculosis; details: 1.5 log10 RLU increase, 1:10,000-fold dilution; for PAE 10× MIC RLU: 3 h exposure at 10× MIC; for PAE 100× MIC RLU: 3 h exposure at 100× MIC
[8] = system: M. tuberculosis H37Rv_LuxABCDE; type: cell-based, Mycobacterium tuberculosis; details: 1:10,000-fold dilution; for PAE 10× MIC CFU/ml: 3 h exposure at 10× MIC; for PAE 100× MIC CFU/ml: 3 h exposure at 100× MIC
[9] = system: M. tuberculosis H37Rv_LuxABCDE; assay: microplate alamarBlue assay (MABA) MIC; details: 90% reduction of fluorescence, 7 days, 7H12 medium; SD from three independent experiments
[10] = Mycobacterium tuberculosis, H37RV, 72 h, EC90, day 3, J774 macrophages, read-out: Intracellular activity, EC90 (±SD) Day 3
[11] = Mycobacterium tuberculosis, H37RV, 120 h, EC90, day 5, J774 macrophages, read-out: Intracellular activity, EC90 (±SD) Day 5
[12] = Mycobacterium tuberculosis, H37RV, 168 h, EC90, day 7, J774 macrophages, read-out: Intracellular activity, EC90 (±SD) Day 7
[13] = 168 h, day 7, SD from three independent experiments, read-out: MBC (±SD) via luminescence
[14] = 336 h, day 14, read-out: MBC (±SD) by luminescence on day 14
[15] = 504 h, day 21, read-out: MBC (±SD) by luminescence on day 21

Structure (SMILES) | MBC [1] [µM] | MIC (±SD) LMICA [2] | EC90 [3, 10] [µM] | EC90 [3, 11] [µM] | EC90 [3, 12] [µM] | onset of growth inhibition of internalized M. tuberculosis [3] | EC90 [4] [µM] | MIC [5] [µM] | MBC [6, 13] [µM] | MBC [6, 14] [µM] | MBC [6, 15] [µM] | change of MBC values over time [6] | time and/or concentration dependence of bactericidal activity [6] | PAE 10× MIC RLU [7] [h] | PAE 100× MIC RLU [7] [h] | PAE 10× MIC CFU/ml [8] [h] | PAE 100× MIC CFU/ml [8] [h] | MIC (±SD) MABA [9] | further results
NNC(=O)c1ccncc1 [Isoniazid] | 0.46 (≈ 0.0631 µg/mL) | 0.24 (0.08) μM | > 8 | 1.05 | 0.52 | late growth inhibition | 1.2 | 0.3 (≈ 0.0411 µg/mL) | 0.57 (≈ 0.0782 µg/mL) | 2.56 (≈ 0.351 µg/mL) | 3.23 (≈ 0.443 µg/mL) | increase | mainly time dependent | 0 | 0 | 0 | 0 | 0.30 (0.05) μM | Toxicity against infected J774, percent inhibition at the highest tested concentration (infected J774; day 7, 8 μM): 8 (0)* percent; inhibition at 8 µM ([3]; Mycobacterium tuberculosis, H37RV, 72 h, day 3, 8 μM, read-out: percent inhibition at the highest tested concentration, intracellular activity Day 3): 77%; PAE 1× MIC RLU ([7]; 3 h exposure at 1× MIC): 0 h; PAE 100× MIC RLU ([7]; listed as isoniazid): no observable PAE; PAE 1× MIC CFU/ml ([8]; 3 h exposure at 1× MIC): 0 h; PAE 100× MIC CFU/ml ([8]; listed as isoniazid): no observable PAE
CO[C@H]1/C=C/O[C@@]2(C)Oc3c(C)c(O)c4c(O)c(c(/C=N/N5CCN(C)CC5)c(O)c4c3C2=O)NC(=O)/C(C)=C\C=C\[C@H](C)[C@H](O)[C@@H](C)[C@@H](O)[C@@H](C)[C@H](OC(C)=O)[C@@H]1C [Rifampin] | 0.4 (≈ 0.329 µg/mL) | 0.041 (0.005) μM | > 2 | 1.55 | 0.64 | late growth inhibition | 2.9 | 0.04 (≈ 0.0329 µg/mL) | 0.6 (≈ 0.494 µg/mL) | 0.48 (≈ 0.395 µg/mL) | 0.4 (≈ 0.329 µg/mL) | decreased | both time and concentration dependent | 26 | 92 | 30 | 58 | 0.060 (0.01) μM | Toxicity against infected J774, percent inhibition at the highest tested concentration (infected J774; day 7, 2 μM): 2 (0)* percent; inhibition at 2 µM ([3]; Mycobacterium tuberculosis, H37RV, 72 h, day 3, 2 μM, read-out: percent inhibition at the highest tested concentration, intracellular activity Day 3): 60%

Reference: article PMC8284454, “In Vitro Profiling of Antitubercular Compounds by Rapid, Efficient, and Nondestructive Assays Using Autoluminescent Mycobacterium tuberculosis” (Antimicrobial Agents and Chemotherapy, 2021)
